For orientation: IC50 means the point on the concentration scale where inhibition reaches its midpoint.

The values that follow come from ChEMBL document CHEMBL1153400, “Fluorinated isatin derivatives. Part 1: synthesis of new N-substituted (S)-5-[1-(2-methoxymethylpyrrolidinyl)sulfonyl]isatins as potent caspase-3 and -7 inhibitors” (Bioorg Med Chem, 2009).

One test deals with T1, Caspase-7 (Homo sapiens, UniProt P55210).
T1 sequence (P55210 whole entry): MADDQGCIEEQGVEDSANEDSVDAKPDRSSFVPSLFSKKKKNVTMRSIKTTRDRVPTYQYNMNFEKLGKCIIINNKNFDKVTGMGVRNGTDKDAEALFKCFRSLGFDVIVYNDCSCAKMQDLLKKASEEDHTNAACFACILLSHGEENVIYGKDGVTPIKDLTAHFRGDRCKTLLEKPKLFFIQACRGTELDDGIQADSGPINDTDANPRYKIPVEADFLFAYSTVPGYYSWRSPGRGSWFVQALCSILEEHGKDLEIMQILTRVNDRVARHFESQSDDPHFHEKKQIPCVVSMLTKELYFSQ
In words: Inhibition of human recombinant caspase 7.

Another test has as its target T2, Caspase-3 (Homo sapiens, UniProt P42574).
T2 sequence (P42574 whole entry): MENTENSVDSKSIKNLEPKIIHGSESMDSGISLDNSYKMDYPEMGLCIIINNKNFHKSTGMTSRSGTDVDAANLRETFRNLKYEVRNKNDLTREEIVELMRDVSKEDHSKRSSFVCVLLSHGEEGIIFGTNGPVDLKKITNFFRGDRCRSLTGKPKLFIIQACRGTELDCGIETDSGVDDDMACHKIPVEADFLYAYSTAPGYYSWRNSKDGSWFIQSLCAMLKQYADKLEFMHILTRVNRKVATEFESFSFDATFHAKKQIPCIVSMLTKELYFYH
In words: Inhibition of human recombinant caspase 3.

Bounds are passed on as bounds.

`CCCCN1C(=O)C(=O)c2cc(S(=O)(=O)N3CCC[C@H]3COC)ccc21`: the values for the IC50 at Caspase-7 and on Caspase-3 were 8.1 nM and 29 nM, respectively.
As for `COC[C@@H]1CCCN1S(=O)(=O)c1ccc2c(c1)C(=O)C(=O)N2`, the IC50 at Caspase-7 stood at 170 nM.
With `COC[C@@H]1CCCN1S(=O)(=O)c1ccc2c(c1)C(=O)C(=O)N2CCCOCCCF`, the IC50 at Caspase-7 and on Caspase-3 was more than 100000 nM each time.
`CCCN1C(=O)C(=O)c2cc(S(=O)(=O)N3CCC[C@H]3COC)ccc21`: the figures for the IC50 at Caspase-7 and on Caspase-3 were 58 nM and 5.3 nM, respectively.
For `COC[C@@H]1CCCN1S(=O)(=O)c1ccc2c(c1)C(=O)C(=O)N2CCCOCCCOS(C)(=O)=O`, the IC50 at Caspase-7 and at Caspase-3 was more than 100000 nM throughout.
Turning to `CCN1C(=O)C(=O)c2cc(S(=O)(=O)N3CCC[C@H]3COC)ccc21`, the IC50 at Caspase-7 worked out at 319 nM; at Caspase-3 it was 183 nM.
Regarding `COC[C@@H]1CCCN1S(=O)(=O)c1ccc2c(c1)C(=O)C(=O)N2CCCOCCCO`, the IC50 on Caspase-7 was found to be 113000 nM.
As to `CCCN1C(=O)C(F)(F)c2cc(S(=O)(=O)N3CCC[C@H]3COC)ccc21`, the IC50 on Caspase-7 and on Caspase-3 was more than 100000 nM throughout.
For `COC[C@@H]1CCCN1S(=O)(=O)c1ccc2c(c1)C(=O)C(=O)N2CCCCF`, the IC50 was 28 nM at Caspase-7 and 41 nM at Caspase-3.
